Read-outs that look alike come from different tables or passages of the source. Ends that are not written are not given here.
How the values were obtained:
[1] = test system: T cell clone 3-3F4; experiment: Chromium release assay, peptide-sensitized targets lysed by T cell clone 3-3F4; type: cell-based, human; conditions: for Conc. (nM): concentration of peptide in which specific killing was between 15 and 30 percent: HLA A*0201-restricted EBVLCL targets, 3-3F4 effectors, E:T=5, 10-fold dilutions 500-0.00005 nM; for recognition by T cell clone 3-3F4 (in words): chromium release assay
Method: Nonamer peptides with the substitutions as shown at each position were synthesized as described in Example 1. […] Results of these assays are shown in the right-hand column of Table II, in terms of concentration of peptide (nM) in which specific killing was between 15 and 30 percent. Results presented are the average from at least three independent experiments carried out on different days using different batches of T cell […]. Peptides were tested using 10-fold dilutions, ranging from 500-0.00005 nM.
(§1) To take advantage of the increased immunogenicity of peptides 44 and 46, while maintaining the universal recognition of the native peptide, library-directed changes were made to peptides 44 and 46, substituting back the native amino acids. A series of 21 peptides were constructed based upon the sequence of the tetra-substituted peptides 44 and 46 in each of the carboxyl terminal amidated and free acid forms. The peptides contained single, double, or triple substitutions of amino acids of the native sequence at the positions indicated. These peptides were assayed utilizing a standard chromium release assay with the screening T cell clone, 3-3F4, and a representative T cell clone (VB57) from another individual expressing a different T cell receptor.

[2] = test system: T cell clone VB57; experiment: Chromium release assay, peptide-sensitized targets lysed by T cell clone VB57; type: cell-based, human
From the text: as §1

[3] = test system: T cell clones from HLA A*0201 individuals seropositive for HCMV; conditions: for T cell clones giving greater specific cytotoxicity at a lower concentration than the native sequence: five T cell clones, EBVLCL targets sensitized at 5.0 or 0.5 nM; for recognition by T cell clones other than 3-3F4: four additional T cell clones from different HCMV-seropositive volunteers, up to 5 nM
Method: Chromium release assays were performed according to the methods of (20). Briefly, target cell lines (antigen presenting cells which present pp65495-503) were labeled for one hour with 200 μCi/ml ^51Cr (ICN™, Costa Mesa, Calif.). HCMV infected targets were prepared as follows. Five-hundred thousand fibroblasts were pretreated with 800 U/10^6 recombinant IFN-γ, (Preprotech™, Rocky Hill, N.J.) to upregulate MHC class I expression and HCMV was added at an m.o.i. of 4. Cells were incubated with virus for two hours at 37° C., in a 5% CO2 incubator. Fresh FBM containing IFN-γ was then added and the cells incubated for an additional 14 hours. Infected fibroblasts were trypsinized, labeled with ^51Cr as described above and used in the assay at an effector-to-target ratio (E/T) of 50 and 10. Epstein-Barr virus transformed B cell lines (EBVLCL) were generated following standard technology using the supernatant of EBV-infected marmoset cells. EBVLCL were grown in medium consisting of RPMI-1640 (Gibco™, Rockville, Md.) supplemented with 10% FBS, 10 mM Hepes Buffer Solution (Irvine Scientific™, Santa Ana, Calif.), penicillin, streptomycin and L-glutamine as described for fibroblast medium. The cells used as targets were prepared by pulsing with […] pp65495-503 peptide, and used at an E/T of 25 and 5. For PS-SCL screening and titration of analog peptides, T2 cells, maintained as described in Diamond et al., Blood 90:1751-1767 (1997), were pulsed with serial peptide dilutions for use as targets for T cell clone effectors at an E/T of 5.
(§2) In the assay, loaded targets and effectors were mixed in culture and incubated for four hours, at which time chromium release was measured. Supernatants were collected on filter frames (Skatron™, Oslo, Norway) and radioactivity determined in a Cobra II gamma counter (Packard™, Meriden, Conn.). For each assay, spontaneous release from the target cells in the absence of effector CTL and maximum possible release after treatment with 2% SDS (Baker Chemicals™, Phillipsburg, N.J.) was determined. Specific cytotoxicity was defined as: 100×[(Re−Rs)/Max−Rs)], where Re=experimental release, and Rs=spontaneous release.
The T cell clones were stimulated in vitro with the native sequence of pp65495-503 (SEQ ID NO:1) as described in Example 2.

[4] = test system: T cell clone 3-3F4; experiment: Flow-cytometric HLA A2-Ig dimer binding to T cell clone 3-3F4; set-up: species or system human; conditions: specific fluorescence, peptide-loaded HLA A2-Ig dimers
Method: HLA A2-Ig dimer aliquots were individually loaded with a series of peptides, and incubated with two different T cell clones, 3-3F4 and VB57. The soluble HLA-A2-Ig complexes (HLA dimers) were loaded with peptide according to the methods of Greten et al., Proc. Natl. Acad. Sci. USA 95:7568-7573 (1998). For each peptide analog to be tested, 10 μg of HLA dimers in 10 μl PBS containing 0.02% NaN3 (Baker Chemical™, Phillipsburg, N.J.) was incubated for three days at 4° C. with 660-fold molar excess peptide. Dimers also were loaded with the pp65495-503 native peptide, an irrelevant peptide (pp54 B*0702 epitope), and 2 μl PBS buffer containing 0.02% NaN3, in all experiments to serve as controls. One microgram aliquots of peptide loaded dimers were mixed with 0.2 million of either T cell clone 3-3F4 or VB57 for 75 minutes on ice. Cells were washed in PBS containing 2% FBS and 0.02% NaN3 (WB), and subsequently stained with 0.9 μl/sample of goat anti-mouse IgG1-PE (Caltag™, Burlingame, Calif.). After two additional washings in WB, cells were analyzed by fluorescence-activated cell sorting (FACSCalibur™). Specific fluorescence was calculated as fluorescence ratio between the mean fluorescence of the peptide-loaded diners and the mean fluorescence of the buffer-loaded control diners. Peptides names ending in N are amidated, while those ending in C are free acids. Each peptide-loaded diner complex was tested at least twice with two different T cell clones (3-3F4 and VB57). The fluorescence indices indicated in the Figure are an average of both experiments.

[5] = test system: T cell clone 3-3F4; experiment: PS-SCL screen and simultaneous native peptide titration, T2 cells, T cell clone 3-3F4; type: cell-based, human; conditions: E:T 5, read-out: concentration sensitizing 50% maximal lysis of T2 cells by 3-3F4
Method: Chromium release assays were performed according to the methods of (20). Briefly, target cell lines (antigen presenting cells which present pp65495-503) were labeled for one hour with 200 μCi/ml ^51Cr (ICN™, Costa Mesa, Calif.). HCMV infected targets were prepared as follows. Five-hundred thousand fibroblasts were pretreated with 800 U/10^6 recombinant IFN-γ, (Preprotech™, Rocky Hill, N.J.) to upregulate MHC class I expression and HCMV was added at an m.o.i. of 4. Cells were incubated with virus for two hours at 37° C., in a 5% CO2 incubator. Fresh FBM containing IFN-γ was then added and the cells incubated for an additional 14 hours. Infected fibroblasts were trypsinized, labeled with ^51Cr as described above and used in the assay at an effector-to-target ratio (E/T) of 50 and 10. […]
as §2, with “Specific cytotoxicity was defined as: 100×[(Re−Rs)/Max−Rs)], where Re=experimental release, and Rs=spontaneous release.” left out

[6] = molecular target: T1, HLA A*0201 (Homo sapiens, UniProt P04439, D140Y/D185E/D98H/E176V/E277Q/G131W/G231S/I119V/I121R/I166T/I218V/L300P/L318F/N151K/N90K/P208A/P217A/Q86G/Q94H/R138H/R169H/T345S); experiment: T2 assembly assay (MHC binding affinity); conditions: for difference between acid and amide forms in binding to HLA A*0201: T2 assembly assay; for MHC affinity (fluorescence ratio) by T2 assembly assay: T2 cells, 100 μM peptide overnight, mAb BB7.2
T1 construct: endogenous in cells; host or cells: T2 cells (TAP-deficient); β2-microglobulin purchased from Sigma, catalogue number not given
Method: See the methods of Nijman et al., Eur. J. Immunol. 23:1215-1219 (1993).
For each analog to be tested, 250,000 T2 cells were washed twice and resuspended in serum free IMDM and incubated overnight with 100 μM peptide together with 15 μg/ml human β2-microglobulin (Sigma™, Lt. Louis, Mo.) at 37° C. in a 5% CO2 incubator. […] After washing twice with cold buffer, FITC-conjugated rat anti-mouse IgG2a/2b (1:40 dilution; Pharmingen™, San Diego, Calif.) was added and incubated for another 30 minutes at 4° C. The cells were washed twice in cold buffer, and mean fluorescence intensity (MFI) of 10^4 gated cells was measured using a FACSCalibur™.
Fluorescence ratio is defined as mean fluorescence with peptide/mean fluorescence without peptide. Results for the amidated peptides indicate only slight changes in MHC binding.

[7] = test system: peripheral blood CTL of HCMV-seropositive HLA A*0201 donors; type: cell-based, human; conditions: amidated peptides
Method: Sixteen to twenty-four million of the ficoll-separated peripheral blood mononuclear cells were incubated 2-3 hours at 37° C. in a 5% CO2 incubator with 100 μM HCMV PP65495-503 peptide (SEQ ID NO: 1) in a volume of 100 μl of T cell culture medium (IVSTCM). IVSTCM consists of RPMI-1640 supplemented with 20% heat inactivated HAB serum, 10 IU/ml r-IL2 (Chiron™, Emeryville, Calif.); 25 mM Hepes Buffer Solution, 50 U/ml penicillin, 50 μg/ml streptomycin, 2 mM L-glutamine and 0.5 mM sodium pyruvate (Gibco™, Rockville, Md.). […] After the incubation period, the cells, now presenting pp65495-503 were resuspended in 2 ml IVSTCM, and γ-irradiated (2,400 rads) using the Isomedic Model 19 Gammator (Nuclear Canada, Parsippany, N.J.).
During the peptide incorporation procedure, an additional aliquot of 10-20 million cells from the same freshly separated peripheral blood mononuclear cells was depleted of CD4^+, CD16^+ and CD56^+ cells as follows. […] The resulting population was >80% CD8^+ as determined using a FAGSCalbur™ fluorescence activated cell sorter (BD Immunocytomeyry Systems™, Palo Alto, Calif.). […]
Peripheral blood from separate individuals was stimulated with peptides 115, 118, and 193 and subjected to a chromium release assay. […] Lymphocytes from three individuals were used for all four peptides, including SEQ ID NO:1, and one individual was evaluated with 193 peptide and the positive control.

In the case of “195C: nonamer YLLPMVATV, SEQ ID NO 58 (YLLPMVATV-OH) [Peptide 195C]”, the “Peptide Concentration (nM), Free Acid, 3-3F4” value ([1]; free acid peptide, chromium release, T cell clone 3-3F4) is reported as greater than 5 nM and the “Peptide Concentration (nM), Free Acid, VB57” value ([2]; free acid peptide) is reported as greater than 5 nM.

With “195N: nonamer YLLPMVATV amide, SEQ ID NO 57 (YLLPMVATV-NH2) [Peptide 195N]” the “Peptide Concentration (nM), Amide, 3-3F4” value ([1]; carboxyl terminal amide peptide, chromium release, T cell clone 3-3F4) was 0.005 nM and the “Peptide Concentration (nM), Amide, VB57” value ([2]; carboxyl terminal amide peptide) was 0.5 nM.

In the case of NLLPMVASV-NH2 [Peptide 118N], the “T cell clones giving greater specific cytotoxicity at a lower concentration than the native sequence” value [3] is reported as “three out of five”.

With “NLVPMVATV [Peptide A7C, reference compound]” the “HLA-Ig dimer binding to T cell clone 3-3F4” value (shortened to “HLA-Ig dimer binding”) [4] was “bound well”, the “Conc. (nM): concentration of peptide in which specific killing was between 15 and 30 percent” value [1] was 0.5 nM and the EC50 [5] was 0.02 nM.

With YLLPMVTSV-NH2 [Peptide 46N] the “HLA-Ig dimer binding” value [4] was “poor binders”, the “Conc. (nM): concentration of peptide in which specific killing was between 15 and 30 percent” value [1] was 0.0005 nM and the “recognition by T cell clone 3-3F4 (in words)” value [1] was “better recognized than the native epitope sequence”. The “difference between acid and amide forms in binding to HLA A*0201” value [6] was “substantial binding differences”, the “MHC affinity (fluorescence ratio) by T2 assembly assay” value [6] was “not dramatically different from the native sequence” and the “recognition by T cell clones other than 3-3F4” value [3] was “No T cell clone other than 3-3F4 recognized”. For the same substance, the “recognition by T cell clones other than 3-3F4” value ([3]; listed as 46) was “not recognized by any of the T cell clones in the cohort” and the “recognition by individuals' peripheral blood T cells after in vitro stimulation with the peptide” value [7] was “only T cells from the individual from whom the PS-SCL screen clone was derived showed any positive response”.

YLLPMVVSV-NH2 [Peptide 44N] was tested, and the “HLA-Ig dimer binding” value [4] was “poor binders”, the “Conc. (nM): concentration of peptide in which specific killing was between 15 and 30 percent” value [1] was 0.00005 nM and the “recognition by T cell clone 3-3F4 (in words)” value [1] was “better recognized than the native epitope sequence”. For the same substance, the “difference between acid and amide forms in binding to HLA A*0201” value [6] was “substantial binding differences”, the “MHC affinity (fluorescence ratio) by T2 assembly assay” value [6] was “not dramatically different from the native sequence” and the “recognition by T cell clones other than 3-3F4” value [3] was “No T cell clone other than 3-3F4 recognized”. The “recognition by T cell clones other than 3-3F4” value ([3]; listed as 44) was “not recognized by any of the T cell clones in the cohort” and the “recognition by individuals' peripheral blood T cells after in vitro stimulation with the peptide” value [7] was “only T cells from the individual from whom the PS-SCL screen clone was derived showed any positive response”.

In the case of YLVPMVASV-NH2 [Peptide 115N], the “T cell clones giving greater specific cytotoxicity at a lower concentration than the native sequence” value [3] is reported as “two out of five”.

With YLVPMVATV-NH2 [Peptide 193N] the “T cell clones giving greater specific cytotoxicity at a lower concentration than the native sequence” value [3] was “two out of five”.

— patent US6951651B2, “CTL epitope analogs” (priority 1999, dated 2005)
